“Also recorded” adds a separate entry of the source.
Tested on: rat model of peripheral arterial disease (PAD rats, femoral artery occlusion)
Assay: Exercise intolerance test (motorized treadmill) in PAD rat model after epidural delivery of RTX
Format: in vivo
Text: Catheter-based femoral artery occlusion was created by placing a modified PE50 catheter (its cavity filled with solid agarose) between common iliac artery and left femoral artery to interrupt hindlimb blood supply. The whole procedure is similar to the telemetry implant surgery. Generally, rats were anesthetized using a 2%-3% isoflurane:oxygen mixture. A warm water blanket was used to provide intra-operative heat support to prevent hypothermia. Rats were placed in the prone position and the surgical site (i.e., the femoral area) was cleared of hair, prepared with iodine or chlorhexidine, and the femoral artery was exposed. After a small incision was made, a modified PE50 catheter was placed into the femoral artery and advanced about 3.5 cm to the iliac artery at the aortic bifurcation. The distal end of the femoral artery was ligated with 4-0 Dexon suture. The skin was closed with external interrupted 4-0 or 3-0 prolene suture, which were removed in 10-14 days after the surgery.
Exercise testing for determination of intolerance time was performed in a motorized treadmill equipped with an electrical grid at the end of the lane. The animals were initially acclimated to the treadmill environment at a low speed (13 m/min, 0% grade) for 6 minutes. Then, data was recorded of the exercise duration and distance at the speed of the treadmill of 13 m/minute (0% grade) and increased of 3 m/minute each 2 minutes until exhaustion. Exhaustion was defined operationally as the time at which the rat was unable, or refused, to maintain its running speed for more than 15 seconds despite encouragement by mild electrical stimulation. The maximal speed and running distance were recorded when exhaustion occurred. Two methods were used to measure the exercise intolerance time in sham, PAD and PAD+RTX rats. With the first method, individual rats were run with 90%, 75%, 50% and 25% of its own maximal speed. The exercise intolerance time corresponding to individual running intensity was recorded and compared among groups. With the second method, a fixed running speed (37 m/minute) was used to run all rats among groups to get their exercise intolerance time.
To deplete skeletal muscle afferent neuron soma (L4-L5 DRGs), rats were anesthetized using 2%-3% isoflurane:oxygen mixture. Rats were placed in the prone position and the surgical site was cleared of hair, prepared with iodine or chlorhexidine. A small midline incision was made in the region of the T13-L1 thoracic vertebrae. Following dissection of the superficial muscles, a small hole (approximately 3 mm*3 mm) was made in the left side of T13 vertebral (ipsilateral). A polyethylene catheter (PE-10) was inserted into the subarachnoid space via left hole and gently advanced about 4.0 cm to the left L5 level in which the first injection (6 μg/ml, 10 μl) was made at a very slow speed to minimize the diffusion of RTX. Then the catheter was pulled back to left L4 to perform another injection (10 μl/each). Then the catheter was held for 15 minutes and then withdrawn. After that, silicon gels were used to seal the hole in the T13 vertebral. The skin overlying the muscle was closured by 3-0 polypropylene suture. Simple interrupted sutures were used to close the skin. Skin suture were removed 10-14 days after surgery. Betadine was applied to the wound and the rats were allowed to recover from the anesthesia.
The therapeutic efficacy of resiniferatoxin was tested in a in a rat model of peripheral arterial disease. As explained above, resiniferatoxin was administered to PAD rats by lumbar epidural administration at the time of femoral arterial occlusion. The resiniferatoxin (6 μg/ml, 10 μl/per ganglia) was injected between the ipsilateral L4 and L5 vertebrae into the epidural space at a concentration of 10 μl per ganglion. Healthy rats with sham treatment were also used as a positive control.

C=C(C)[C@]12C[C@@H](C)[C@@]34O[C@@](Cc5ccccc5)(OC1C3C=C(COC(=O)Cc1ccc(O)c(OC)c1)C[C@]1(O)C(=O)C(C)=CC41)O2 (stereo partly drawn) [resiniferatoxin, [(1R,6R,13R,15R,17R)-13-benzyl-6-hydroxy-4,17-dimethyl-5-oxo-15-(prop-1-en-2-yl)-12,14,18-trioxapentacyclo[11.4.1.0^1,10.0^2,6.0^11,15]octadeca-3,8-dien-8-yl]methyl 2-(4-hydroxy-3-methoxyphenyl)acetate]
ability to run for longer distances at a higher rate (time running at percent maximum intensity) (RTX 6 μg/ml, 10 μl per ganglion, lumbar epidural L4/L5, at the time of femoral arterial occlusion, FIG. 1D): increased ability to run for longer distances at a higher rate
ability to run at 37 m/minute (time run at 37 m/min) (RTX 6 μg/ml, 10 μl per ganglion, lumbar epidural L4/L5, at the time of femoral arterial occlusion, fixed speed 37 m/minute, FIG. 1C): increased ability to run at 37 m/minute
running distance (RTX 6 μg/ml, 10 μl per ganglion, lumbar epidural L4/L5, at the time of femoral arterial occlusion, vs PAD+control, FIG. 1A): increased running distances
maximal running speed (RTX 6 μg/ml, 10 μl per ganglion, lumbar epidural L4/L5, at the time of femoral arterial occlusion, vs PAD+control, FIG. 1B): increased maximal running speed
exercise limitations associated with PAD (RTX administered 4 weeks after femoral arterial occlusion (after onset of PAD), before vs after treatment, FIG. 2): reduces exercise limitations; also recorded: reduced the exercise limitations
exercise limitations associated with PAD (RTX given at the time of femoral arterial occlusion, FIG. 1): reduces the exercise limitations
duration of the statistically significant improvements in exercise performance (RTX given at the time of femoral arterial occlusion, time after PAD surgery): lasted for months

Source: patent publication US20200129472A1, “COMPOSITIONS AND METHODS FOR THE TREATMENT OF PERIPHERAL ARTERY DISEASE” (BOARD OF REGENTS OF THE UNIVERSITY OF NEBRASKA, priority 2017, published 2020)
